Molecules are shown by their SMILES. Like-named read-outs stand apart in the source and are kept apart here.

The subject of one assay is normal rats. The assay is described as follows: Blood triglyceride (TG)-lowering action in normal rats. Format: in vivo. The following applies: 0.3 mg/kg p.o. once a day for 4 days, normal male SD rats, non-fasting, blood TG vs vehicle group; for inhibition in vivo at 0.3 mg/kg: Rattus norvegicus, po, 96 h, read-out: hypotriglyceridemic rate (%, 0.3 mg/kg, p.o.). The procedure: 1) Blood Triglyceride (TG)-Lowering Action in Normal Rats
7 to 9-week-old male SD rats (manufactured by SEAC Yoshitomi, Ltd.) were used for the test. A test compound and a control compound (GW-9578: J. Med. Chem. 1999, 42, 3785-3788) were dissolved or suspended in 1% ethanol, 0.05% Tween80 (final concentration), and 0.5% hydroxypropylmethyl cellulose (HPMC) was added to adjust to a given concentration. The prepared solution was orally administered once a day for 4 days. After administration for 4 days, blood samples were collected from the jugular vein under non-fasting condition and blood TG was measured by an enzyme method. The lowering rate was calculated by determining the rate of a value obtained by subtracting the average blood TG of a drug administration group from the average blood TG of a vehicle administration group, to the average blood TG of the vehicle administration group.

Assay [1] concerns high cholesterol diet-treated rat. The assay is described as follows: Influence on serum lipid of high cholesterol diet-treated rat. Format: in vivo, male SD rats. The settings on record: 0.3 mg/kg p.o. once a day for 5 days, high cholesterol diet rats, non-fasting; for inhibition in vivo at 0.3 mg/kg: Rattus norvegicus, po, 120 h. The procedure:
2) Influence on Serum Lipid of High Cholesterol Diet-Treated Rat
8-week-old male SD rats (manufactured by SEAC Yoshitomi, Ltd.) were raised on a standard diet CE-2 (manufactured by Japan Clea, Inc.) added with 1% cholesterol, 2% olive oil and 0.2% cholic acid, from one week before test compound administration to the last day of the administration. A test compound and a control compound (GW-9578) were dissolved or suspended in 1% ethanol, 0.05% Tween80 (final concentration), and 0.5% hydroxypropylmethyl cellulose (HPMC) was added to adjust to a given concentration. The prepared solution was orally administered once a day for 5 days. After administration for 5 days, blood samples were collected from the jugular vein under non-fasting condition and blood lipid was measured by an enzyme method. The lowering rate was calculated by determining the rate of a value obtained by subtracting the average blood TG (or average blood TC) of a drug administration group from the average blood triglyceride (TG) (or average blood total cholesterol (TC)) of a vehicle administration group, to the average blood TG (or average blood TC) of the vehicle administration group.

Assay [2] addresses T1, Human Peroxisome Proliferator-Activated Receptor (PPAR)α (Homo sapiens, UniProt Q07869).
T1 construct: expressed in transfected cells; host or cells: CV-1 cells (CCL-70)
T1 sequence (Q07869 239-466 limits assumed): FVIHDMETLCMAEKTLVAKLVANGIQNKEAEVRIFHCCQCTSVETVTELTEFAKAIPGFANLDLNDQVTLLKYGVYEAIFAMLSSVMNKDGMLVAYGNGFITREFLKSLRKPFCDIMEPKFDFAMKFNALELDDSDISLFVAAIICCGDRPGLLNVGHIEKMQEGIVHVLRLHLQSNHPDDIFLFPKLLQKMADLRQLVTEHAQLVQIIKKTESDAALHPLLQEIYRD
In words: Transcription activation test for human PPARα (GAL4-hPPARαLBD luciferase reporter in CV-1 cells). The class given is cell-based. The settings on record: firefly luciferase reporter, 24 hr with test compound in serum free medium, read-out: transactivation action (EC50, nmol/l). The source says: Transcription Activation Test for Human Peroxisome Proliferator-Activated Receptor (PPAR)α
CV-1 cells (CCL-70, manufactured by Dainippon Pharma Co., Ltd.) cultured in Dulbecco's Modified Eagle Medium (DMEM) containing 10% fetal bovine serum (FBS) were transfected, using Lipofectamine 2000 (manufactured by Invitrogen), with pBIND vector (manufactured by Promega) a fusion that expresses protein (GAL4-hPPARαLBD, manufactured based on Diabetes 47: 1841-1847, 1998) of a DNA binding region of a yeast transcription factor (GAL4) and a human PPARα ligand binding region, and an internal standard renilla luciferase, and GAL4 responsive TK vector (manufactured by Promega) that expresses reporter firefly luciferase. 24 hr later, the medium was changed to a serum free medium containing a test compound, and the luciferase activity after 24 hr was measured.

Setting [3] is: blood total cholesterol vs vehicle group, read-out: lowering rate (%, 0.3 mg/kg, p.o.) TC.
The mark [4] stands for this setting: blood triglyceride vs vehicle group, read-out: lowering rate (%, 0.3 mg/kg, p.o.) TG.

`CCc1cnc(N(CCc2csc(SC(C)(C)C(=O)O)n2)Cc2cnn(-c3ccccc3)c2)nc1` [Example 326, 2-{[4-(2-{(5-ethylpyrimidin-2-yl)[(1-phenyl-1H-pyrazol-4-yl)methyl]amino}ethyl)-1,3-thiazol-2-yl]thio}-2-methylpropionic acid]: the inhibition in vivo at 0.3 mg/kg in the assay on normal rats is 59%; in assay [1] (setting [3]) it was 31%; in assay [1] (setting [4]) it was 43%. In assay [2], the EC50 came out at 38.8 nmol/L.

For `CCCCCCCN(CCc1csc(SC(C)(C)C(=O)O)n1)c1ncc(N2CCOCC2)cn1` [Example 442, 2-[(4-{2-[heptyl(5-morpholin-4-ylpyrimidin-2-yl)amino]ethyl}-1,3-thiazol-2-yl)thio]-2-methylpropionic acid], the inhibition in vivo at 0.3 mg/kg with normal rats worked out at 65%; in assay [1] (setting [3]), 38%; in assay [1] (setting [4]), 39%. In assay [2], the EC50 was 5.5 nmol/L.

In the case of `CCc1cnc(N(C/C=C/c2ccccc2)CCc2csc(SC(C)(C)C(=O)O)n2)nc1` [Example 346, 2-{[4-(2-{(5-ethylpyrimidin-2-yl)[(2E)-3-phenylprop-2-en-1-yl]amino}ethyl)-1,3-thiazol-2-yl]thio}-2-methylpropionic acid], the inhibition in vivo at 0.3 mg/kg with normal rats amounted to 63%; in assay [1] (setting [3]) it was 31%; in assay [1] (setting [4]), 47%. The EC50 in assay [2] worked out at 13.6 nmol/L.

For `CC(C)(Sc1nc(CCNc2cnc(-c3ccc(Cl)cc3)cn2)cs1)C(=O)O` [Example 226, 2-{[4-(2-{[5-(4-chlorophenyl)pyrazin-2-yl]amino}ethyl)-1,3-thiazol-2-yl]thio}-2-methylpropionic acid], the inhibition in vivo at 0.3 mg/kg in the assay with normal rats came to 64%; in assay [1] (setting [3]), 38%; in assay [1] (setting [4]) it was 56%. For the same molecule, the EC50 in assay [2] worked out at 16.5 nmol/L.

In the case of `CC(C)(Sc1nc(CCNc2ncc(-c3ccc(OC(F)(F)F)cc3)cn2)cs1)C(=O)O` [Example 162, 2-methyl-2-({4-[2-({5-[4-(trifluoromethoxy)phenyl]pyrimidin-2-yl}amino)ethyl]-1,3-thiazol-2-yl}thio)propionic acid], the inhibition in vivo at 0.3 mg/kg was determined as 65% in the assay on normal rats, 31% in assay [1] (setting [3]) and 48% in assay [1] (setting [4]). The EC50 in assay [2] turned out to be 21 nmol/L.

Turning to `CC(C)(Sc1nc(CCOc2ccc(-c3ccc(F)cc3)cn2)cs1)C(=O)O` [Example 100], the inhibition in vivo at 0.3 mg/kg in the assay with normal rats was 61%; in assay [1] (setting [3]), 35%; in assay [1] (setting [4]), 38%. Moreover, the EC50 in assay [2] stood at 11.2 nmol/L.

Turning to `CC(C)(Sc1nc(CCOc2ccc(-c3ccc(F)cc3)cc2)cs1)C(=O)O` [Example 34, 2-[(4-{2-[(4′-fluorobiphenyl-4-yl)oxy]ethyl}-1,3-thiazol-2-yl)thio]-2-methylpropionic acid], the inhibition in vivo at 0.3 mg/kg in the assay with normal rats is 62%; in assay [1] (setting [3]) it was 43%; in assay [1] (setting [4]), 45%. The EC50 in assay [2] stood at 10.4 nmol/L.

Turning to `CCCCCCCN(CCc1ccc(SC(C)(C)C(=O)O)cc1)C(=O)Nc1ccc(F)cc1F` [GW-9578, reference compound], the “hypotriglyceridemic rate (%, 0.3 mg/kg, p.o.)” value with normal rats is listed as 50-60%. Further, the “lowering rate (%, 0.3 mg/kg, p.o.) TC” value in assay [1] (blood total cholesterol vs vehicle group) was 30-50%. Besides, the “lowering rate (%, 0.3 mg/kg, p.o.) TG” value in assay [1] (blood triglyceride vs vehicle group) is on record as 30-50%.

Consider `CCCCCCCN(CCc1csc(SC(C)(C)C(=O)O)n1)c1ncc(CC)cn1` [Example 265, 2-[(4-{2-[(5-ethylpyrimidin-2-yl)(heptyl)amino]ethyl}-1,3-thiazol-2-yl)thio]-2-methylpropionic acid], for which the inhibition in vivo at 0.3 mg/kg in the assay on normal rats amounted to 69%; in assay [1] (setting [3]), 31%; in assay [1] (setting [4]), 63%. Besides, in assay [2], the EC50 worked out at 7 nmol/L.

In the case of `CC(C)(Sc1nc(CCNc2ccc(-c3ccc(C(F)(F)F)cc3F)nn2)cs1)C(=O)O` [Example 224, 2-({4-[2-({6-[2-fluoro-4-(trifluoromethyl)phenyl]pyridazin-3-yl}amino)ethyl]-1,3-thiazol-2-yl}thio)-2-methylpropionic acid], the results for the inhibition in vivo at 0.3 mg/kg (in the assay with normal rats; in assay [1] (setting [3]); in assay [1] (setting [4])) were 63%, 31% and 57%, respectively. Also, the EC50 in assay [2] stood at 29.7 nmol/L.

The record behind these values is US8026370B2, “Carboxylic acid derivative containing thiazole ring and pharmaceutical use thereof” (Mitsubishi Tanabe Pharma Corporation, priority 2004, dated 2011).
